Test results from US10711002B2, “Purine compounds and method for the treatment of cancer” (THE ROYAL INSTITUTION FOR THE ADVANCEMENT OF …, priority 2016, dated 2020).

What was measured:
Pilot toxicity study = format: in vivo, mice; settings: doses even superior to 30 mg/kg, PO, 3 times a week, 4 cycles
Description: (§1) In vivo studies were approved by McGill Animal Care Committee. Cells growing in exponential phase of growth (1×10^6 cells/mouse) were transplanted into the mammary fat pad of female SCID (MDA231/M) or Balb/c (4T1) mice. Mia-PaCa cells and RENCA cells were implanted subcutaneously in SCID or Balb/c mice respectively. When primary tumors became palpable mice were randomized and blindly assigned treatment groups. Treatment was given PO for 4 cycles (3 times a week: day 1, day 3, day 5) (n=8-10 mice per condition). Control mice received the vehicle alone (1% DMSO in physiologic solution). […] Tumor size was measured using a caliper. At the study termination (60-90 days) primary tumors were excised and weighted. The lungs were fixed in 10% Bouin's fixative and lung surface metastases were counted using a stereomicroscope.

OVCAR-3 cells = experiment: Clonogenic assay; format: cell-based; settings: OVCAR-3, 6 days of incubation
Method: (§2) Cancer cell lines: MDA-MB-231, BT-20, Panc-1, OVCAR-3, 4T1 and RENCA were obtained from ATCC. Epithelial breast adenocarcinoma cell line PMC42-LA, were kindly provided by Dr. Ackland. Mia-Paca cells were kindly provided by Dr. George Zogopoulos. All cancer cell lines were cultured in RPMI1640× with 10% fetal bovine serum with 1% penicillin/streptomycin, and maintained at 37° C. in 5% atmosphere of CO2. In the case of growth factor stimulation, cells were serum starved for no longer than 12H, and then stimulated with 20 ng/ml EGF for 40 minutes.
(§3) Clonogenic assays were also performed using standard techniques as previously described. Briefly, cells were harvested from exponential-phase cultures, counted and plated at densities of 200 cells per well of a 12-well plate. Twenty-four hours after plating, the compounds were delivered once at the mentioned concentration. Negative control was carried out by treating the cells with DMSO. After 6 days of incubation in the presence of the compounds, the cells were stained with 0.5% crystal violet in absolute ethanol, and colonies were counted using the machine GelCount™ Tumor Colony Counter from Oxford Optronix Ltd. Each experiment was done in triplicates.

Panc-1 cells = experiment: Clonogenic assay; format: cell-based; settings: Panc-1, 6 days of incubation
Method: as §2, §3

BT20 cells = experiment: Clonogenic assay; format: cell-based; settings: BT20, 6 days of incubation
Method: as §2, §3

[1] = tested on: breast cancer metastasis to the lung; experiment: In vivo invasive breast cancer models, metastasis to the lung; settings: 30 mg/kg and below given bi-weekly for 3 weeks
Description: These kinases are directly involved in pathways controlling cell differentiation programs, metastasis signaling, as well as EMT and CSC programming and their overexpression was reported to predict decreased metastasis-free survival.
as §1, with “Treatment was given PO for 4 cycles (3 times a week: day 1, day 3, day 5) (n=8-10 mice per condition).” left out

[2] = tested on: RENCA (renal adenocarcinoma); experiment: In vivo primary tumor growth, subcutaneous implant; design: species or system Balb/c mice
Description: as §1

cell cycle = experiment: Cell cycle analysis (FACS, propidium iodide staining); format: cell-based
Method: Cell cycles were synchronized prior to treatment through overnight serum deprivation. After treatment, cells were fixed and permeabilized using BD Cytofix/Cytoperm reagent (BD Bioscience), washed with PBS, and treated with 100 μg/ml Bovine Pancreas RNase A (US Biological). Cells were then stained with 25 μg/ml propidium iodide (Sigma) for 15 minutes and then immediately analyzed by flow cytometry using BD FACScalibur. The data was analyzed using FCS Express software.
It was observed during Compound 1 treatment that the targeting effect against stem-like cells is visibly associated with morphological changes resembling cell polyploidization, the accumulation of multiple DNA copies in a cell. This biological phenomenon sometimes occur as part of cell differentiation and is often associated with disruption of normal cell cycle. The identification of Aurora kinases (described below) as targets of Compound 1 supports the possible impact on cell division. Therefore the effect of Compound 1 on cell cycle using FACS analysis to measure propidium iodide staining was investigated.

BT-20 cells = experiment: Tumorsphere formation; format: cell-based; settings: BT-20, 1 μM for 72H, reseeded in suspension
Method: as §2
(§4) After treatment with 1 μM Compound 1 for 72H, MDA-MB-231 and BT-20 cells were digested with 0.25% trypsin and reseeded at 2.5×10^4 cells/ml in 60 mm Ultralow Adherence plates (Corning) in DMEM/F12 supplemented with 5 ug/ml human insulin, 20 ng/ml human epidermal growth factor, 0.5 ug/ml hydrocortisone and 2% B27 (Invitrogen). Tumorspheres were then visualized (FIG. 1A) and then quantified (FIG. 1B). An important feature of cancer stem-like cells is their enhanced tumorsphere forming potential when grown in suspension. The tumorsphere forming capacity of Compound 1-treated MDA-MB-231 and BT-20 were analyzed in FIG. 1A. Consistent with previous characterization of these cells, in the absence of Compound 1, both MDA-MB-231 and BT-20 are capable of propagating as small individual tumorspheres that survive passaging.

MDA-MB-231 cells = experiment: Tumorsphere formation; format: cell-based; settings: MDA-MB-231, 1 μM for 72H, reseeded in suspension
Method: as §2, §4

cell mobility = experiment: Live cell locomotion assay; format: cell-based; settings: moderate doses; 10 ng/mL EGF stimulation
Method: Cells were seeded at very low density on multi-well chambered coverglass (LabTek, Rochester, N.Y., USA). After starving, cells were stimulated with 10 ng/mL EGF and plated on a heated humidified stage supplied with 5% CO2. Phase contrast time-lapse images were captured every five minutes for three hours by optimized Nipkow spinning disk confocal microscope (WaveFx spinning disk, Quorum Technologies Inc, Guelph, ON, Canada). Cell motility was measured by tracing the cell periphery manually using Volocity software (Perkin Elmer, Waltham, Mass., USA).
To further confirm Compound 1's anti-metastatic potential, we conducted a live cell locomotion assay to quantify cell movement speed.

O=c1c2ccccc2[se]n1-c1nc(N[C@H]2CC[Se]C2)c2nc[nH]c2n1 [Compound 4]
body weight loss (Pilot toxicity study): no body weight loss | toxicity (Pilot toxicity study): no apparent toxicity | colony forming ability (OVCAR-3 cells): Significant reduction | colony forming ability (Panc-1 cells): Significant reduction | colony forming ability (BT20 cells): Significant reduction | inhibition of breast cancer metastasis to the lung [1]: more than 50% | Primary tumor weight (% inhibition vs. control) ([2]; RENCA subcutaneous in Balb/c mice, PO): (34-55%) | renal adenocarcinoma cell (RENCA) growth in vivo ([2]; mouse, in vivo): able to inhibit

O=c1c2ccccc2[se]n1-c1nc(NC2CCCCC2)c2nc[nH]c2n1 [Compound 1]
accumulation of polyploidic cells (cell cycle): induces a dose-dependent accumulation of polyploidic cells | viable tumorspheres (BT-20 cells): dramatic reduction in viable tumorspheres | viable tumorspheres (MDA-MB-231 cells): dramatic reduction in viable tumorspheres | limitation of the rate of cell mobility (cell mobility): 2-3 fold
